US20150274703A1, “1H-Indole-3-Carboxamide Derivatives And Use Thereof As P2Y12 Antagonists” (SANOFI, priority 2012, published 2015)
Where a name gives a salt, the structure may show the parent alone. Read-outs that look alike come from different tables or passages of the source.

Legend:
[1] = system: platelet aggregation (rat blood, platelet-rich plasma); assay: Inhibition of platelet aggregation in vitro (rat blood); assay type: cell-based; settings: 0.1 h, Sprague-Dawley rat PRP, area under the curve of absorbance over 6 minutes
Description: Inhibition of Platelet Aggregation In Vitro (Rat Blood) Blood is taken from male rats of the Sprague-Dawley strain, weighing 250-300 g. The sample is taken on 3.8% sodium citrate (1 volume for 9 blood volumes) by abdominal aortic puncture after the animal has been anesthetized with sodium pentobarbital. The platelet-rich plasma (PRP) is obtained by centrifugation of the blood at 300 g for 5 minutes, and the platelet aggregation measurements are carried out as described above. The results are calculated using the area under the curve of absorbance measured for 6 minutes, and expressed by the percentage inhibition. The platelet aggregation measurements are carried out at 37° C. in glass tubes (Chrono-Log aggregometer—Kordia). 4 μl of the test compound (solution 100 times more concentrated than the desired final concentration, in DMSO) are mixed with 392 μl of fresh PRP, and incubated for 1 minute with stirring. Then, 4 μl of a solution of ADP at 250 μM are added to the mixture. The aggregation measurements are monitored for 6 to 8 minutes, with constant stirring, by recording the variations in the optical density according to the method of G.V.R. BORN (Born Nature (1962) 194, 927).

[2] = system: platelet aggregation (rat blood, platelet-rich plasma); assay: Inhibition of platelet aggregation ex vivo (rat blood); assay type: in vivo
Description: The platelet aggregation measurements are carried out at 37° C. in glass tubes (Chrono-Log aggregometer—Kordia). 4 μl of the test compound (solution 100 times more concentrated than the desired final concentration, in DMSO) are mixed with 392 μl of fresh PRP, and incubated for 1 minute with stirring. Then, 4 μl of a solution of ADP at 250 μM are added to the mixture. The aggregation measurements are monitored for 6 to 8 minutes, with constant stirring, by recording the variations in the optical density according to the method of G.V.R. BORN (Born Nature (1962) 194, 927). Inhibition of Platelet Aggregation Ex Vivo (Rat Blood) Male rats of the Sprague-Dawley strain, weighing 250-300 g, are used in a proportion of 6 animals per batch. Each test compound is diluted in a glucose solution (5% glucose) containing 5% of cremophor and 3% of glycofurol. […] The sample is taken on 3.8% sodium citrate (1 volume for 9 blood volumes) by abdominal aortic puncture after the animal has been anesthetized with sodium pentobarbital. The platelet-rich plasma (PRP) is obtained by centrifugation of the blood at 300 g for 5 minutes, and the platelet aggregation measurements are carried out as described above. The results are calculated using the area under the curve of absorbance measured for 6 minutes, and expressed by the percentage (%) inhibition.

[3] = system: platelet aggregation (human blood, platelet-rich plasma); assay: Inhibition of platelet aggregation in vitro (human blood); assay type: cell-based; settings: human PRP from healthy volunteers, ADP-induced, size of aggregation as height
Description: Inhibition of Platelet Aggregation In Vitro (Human Blood) Blood is taken from healthy volunteers, using 20 ml syringes containing 2 ml of buffered sodium citrate. The blood is transferred into polypropylene tubes and centrifuged for 5 minutes (100 g) at ambient temperature (without using the brake of the centrifuge). The platelet-rich plasma (PRP) supernatant is then removed, diluted, and counted for platelets before being used in the aggregation measurements. The platelet aggregation measurements are carried out at 37° C. in glass tubes (Chrono-Log aggregometer—Kordia). 4 μl of the test compound (solution 100 times more concentrated than the desired final concentration, in DMSO) are mixed with 392 μl of fresh PRP, and incubated for 1 minute with stirring. Then, 4 μl of a solution of ADP at 250 μM are added to the mixture. The aggregation measurements are monitored for 6 to 8 minutes, with constant stirring, by recording the variations in the optical density according to the method of G.V.R. BORN (Born Nature (1962) 194, 927). The results are calculated using the size of the aggregation expressed as height, and expressed by the percentage inhibition.

[4] = oral gavage, t = 2 h after administration, read-out: Inhibition of platelet aggregation ex vivo (rat blood), Gavage (oral)

## CCCC(=O)c1cnn([C@H]2CC[C@H](NC(=O)c3cn(CC(=O)N4CCN(CCOC)CC4)c4ccc(Cl)cc34)CC2)c1C (as salt: hydrochloride) [Compound 2, 5-Chloro-1-{2-[4-(2-methoxyethyl)piperazin-1-yl]-2-oxoethyl}-1H-indole-3-carboxylic acid [4-(4-butyryl-5-methylpyrazol-1-yl)cyclohexyl]-amide hydrochloride]
other
  melting point: 263 °C

## CCCC(=O)c1cnn([C@H]2CC[C@H](NC(=O)c3cn(CC(=O)N4CCN(CCC(F)(F)F)CC4)c4ccc(Cl)cc34)CC2)c1C (as salt: hydrochloride) [Compound 3, 5-Chloro-1-{2-oxo-2-[4-(3,3,3-trifluoropropyl)piperazin-1-yl]ethyl}-1H-indole-3-carboxylic acid [4-(4-butyryl-5-methylpyrazol-1-yl)cyclohexyl]amide hydrochloride]
other
  melting point: 249 °C

## CCCC(=O)c1cnn([C@H]2CC[C@H](NC(=O)c3cn(CC(=O)N4CCN(C)CC4)c4ccc(Cl)cc34)CC2)c1C [Compound 1, 5-Chloro-1-[2-(4-methylpiperazin-1-yl)-2-oxoethyl]-1H-indole-3-carboxylic acid [4-(4-butyryl-5-methyl-pyrazol-1-yl)-cyclohexyl]amide hydrochloride]
[1]
  IC50: 91 nM
[2]; 0.5 h, intravenous infusion, 30 min after administration, read-out: Inhibition of platelet aggregation ex vivo (rat blood), Infusion (Intravenous)
  inhibition at 3 mg/kg: 79 ± 5%
[2]; [4]
  inhibition at 3 mg/kg: 42.8 ± 10.7%
[3]
  IC50: 270 nM

## CCCC(=O)c1cnn([C@H]2CC[C@H](NC(=O)c3cn(CC(=O)N4CCN(CCOC)CC4)c4ccc(Cl)cc34)CC2)c1C [Compound 2, 5-Chloro-1-{2-[4-(2-methoxyethyl)piperazin-1-yl]-2-oxoethyl}-1H-indole-3-carboxylic acid [4-(4-butyryl-5-methylpyrazol-1-yl)cyclohexyl]-amide hydrochloride]
[1]
  IC50: 80 nM

## CCCC(=O)c1cnn([C@H]2CC[C@H](NC(=O)c3cn(CC(=O)N4CCN(CCC(F)(F)F)CC4)c4ccc(Cl)cc34)CC2)c1C [Compound 3, 5-Chloro-1-{2-oxo-2-[4-(3,3,3-trifluoropropyl)piperazin-1-yl]ethyl}-1H-indole-3-carboxylic acid [4-(4-butyryl-5-methylpyrazol-1-yl)cyclohexyl]amide hydrochloride]
[1]
  IC50: 294 nM

## CCCC(=O)c1cnn(C2CCN(NC(=O)c3cn(CC(=O)N4CCN(C)CC4)c4ccc(Cl)cc34)CC2)c1C [Compound 4, 5 -Chloro-1-[2-(4-methylpiperazin-1-yl)-2-oxoethyl]-1H-indole-3-carboxylic acid [4-(4-butyryl-5-methylpyrazol-1-yl)piperidin-1-yl]amide hydrochloride]
[1]
  IC50: 43 nM
[2]; intravenous infusion, dose 1 mg/kg, t = 2 h after administration
  inhibition at 1 mg/kg: 88 ± 5%
[2]; [4]
  inhibition at 3 mg/kg: 72 ± 15%
[3]
  IC50: 25 nM

## CCCC(=O)c1cnn(C2CCN(NC(=O)c3cn(CC(=O)N4CCN(CCOC)CC4)c4ccc(Cl)cc34)CC2)c1C [Compound 5, 5-Chloro-1-{2-[4-(2-methoxyethyl)piperazin-1-yl]-2-oxoethyl}-1H-indole-3-carboxylic acid [4-(4-butyryl-5-methylpyrazol-1-yl-piperidin-1-yl]amide hydrochloride]
[1]
  IC50: 17 nM

## CCCC(=O)c1cnn(C2CCN(NC(=O)c3cn(CC(=O)N4CCN(CCOC(F)(F)F)CC4)c4ccc(Cl)cc34)CC2)c1C [Compound 6, 5-Chloro-1-{2-oxo-2-[4-(2-trifluoromethoxyethyl)piperazin-1-yl]ethyl}-1H-indole-3-carboxylic acid [4-(4-butyryl-5-methylpyrazol-1-yl)piperidin-1-yl]amide hydrochloride]
[1]
  IC50: 46 nM
